Measurements as given in US9695155B2, “Herbicidal substituted pyrimidinyloxy benzene compounds” (E. I. DU PONT DE NEMOURS AND COMPANY, priority 2013, dated 2017).

Legend:
[1] = system: wheat; assay: Test A preemergence; type: in vivo, Triticum aestivum; conditions: for Wheat plant response rating (0 to 100 scale): 125 g ai/ha
Outline: (§1)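 Visual 0–100 rating (100 = complete control) taken about 10 d post-treatment relative to untreated checks. Preemergence: directed soil spray on sown loam/sand pots. Postemergence: seedlings 2–10 cm, 1–2 leaf. Non-phytotoxic solvent formulation with surfactant.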

[2] = system: giant foxtail; assay: Test A postemergence; type: in vivo, Setaria faberii; conditions: 0 to 100 scale where 0 is no effect and 100 is complete control
Outline: as §1

[3] = system: morningglory; assay: Test A postemergence; type: in vivo, Ipomoea spp.; conditions: 0 to 100 scale where 0 is no effect and 100 is complete control; for Morningglory plant response rating: 125 g ai/ha
Outline: as §1

[4] = system: Heteranthera limosa; assay: Test B flooded paddy test; type: in vivo; conditions: Flood, 250 g ai/ha, 0 to 100 scale where 0 is no effect and 100 is complete control
Outline: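 Post-emergence paddy-water application at the 2-leaf stage, with 3 cm flood kept for the whole test. Response was judged visually relative to controls after 13 to 15 greenhouse days, 0 indicating no effect and 100 complete control.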

[5] = system: corn; assay: Test C preemergence; type: in vivo, Zea mays
Outline: (§2)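 Rated visually on 0–100 (100 = complete control) after 13–15 days under glass. Treatments went onto freshly seeded loam/sand soil or onto emerged plants at the 1- to 4-leaf stage, using a surfactant-containing solvent formulation.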

[6] = system: giant foxtail; assay: Test C preemergence; type: in vivo, Setaria faberii
Outline: as §2

[7] = system: oilseed rape; assay: Test C preemergence; type: in vivo, Brassica napus
Outline: as §2

[8] = system: waterhemp; assay: Test C preemergence; type: in vivo, Amaranthus rudis
Outline: as §2

[9] = system: galium; assay: Test C postemergence; type: in vivo, Galium aparine
Outline: as §2

[10] = system: johnsongrass; assay: Test C postemergence; type: in vivo, Sorghum halepense; conditions: for Johnsongrass plant response rating: 31 g ai/ha
Outline: as §2

[11] = system: ragweed; assay: Test C postemergence; type: in vivo, Ambrosia elatior; conditions: for Ragweed plant response rating: 31 g ai/ha
Outline: as §2

[12] = postemergence, visual rating, scale 0 to 100 (0 no effect, 100 complete control), 13 to 15 days
[13] = 16 g ai/ha, preemergence, scale 0 to 100 (0 no effect, 100 complete control)
[14] = 125 g ai/ha, preemergence, scale 0 (no effect) to 100 (complete control)
[15] = Preemergence, 62 g ai/ha, scale 0 to 100, 0 no effect, 100 complete control
[16] = 16 g ai/ha, postemergence, 0 is no effect, 100 is complete control
[17] = 125 g ai/ha, postemergence, visual rating, scale 0 to 100 (0 no effect, 100 complete control)
[18] = Postemergence, 62 g ai/ha, scale 0 to 100 (0 no effect, 100 complete control), 13 to 15 days

FC(F)(F)c1cn(-c2ccccc2Oc2ncc(Cl)cn2)nn1 [Compound 166, 5-chloro-2-[2-[4-(trifluoromethyl)-1H-1,2,3-triazol-1-yl]phenoxy]pyrimidine]
Wheat plant response rating (0 to 100 scale) [1]: 50
plant injury at 500 g/ha ([1]; Triticum aestivum, pre-emergence, 240 h, 500 g ai/ha, 0 to 100 scale where 0 is no effect and 100 is complete control, read-out: Wheat plant response rating): 80%
pest or weed control at 125 g/ha ([2]; Setaria faberi, post-emergence, 240 h, 125 g ai/ha, read-out: Foxtail, Giant plant response rating): 90%
pest or weed control at 500 g/ha ([2]; Setaria faberi, post-emergence, 240 h, 500 g ai/ha, read-out: Plant response rating, Foxtail, Giant): 90%
Morningglory plant response rating [3]: 100
pest or weed control at 500 g/ha ([3]; Ipomoea, post-emergence, 240 h, 500 g ai/ha, read-out: Plant response rating, Morningglory): 100%
pest or weed control at 250 g/ha ([4]; Heteranthera limosa, read-out: Plant response rating, Ducksalad): 95%
plant injury at 16 g/ha ([5]; Zea mays, pre-emergence, 16 g ai/ha, preemergence, scale 0 to 100 (0 no effect, 100 complete control), read-out: Corn plant response rating): 0%
plant injury at 62 g/ha ([5]; Zea mays, pre-emergence, 62 g ai/ha, preemergence, scale 0 (no effect) to 100 (complete control), read-out: Corn plant response rating): 40%
plant injury at 125 g/ha ([5]; Zea mays, pre-emergence, 125 g ai/ha, preemergence, scale 0 (no effect) to 100 (complete control), read-out: Corn plant response rating): 80%
Corn plant response rating (crop injury, 0 = no effect, 100 = complete kill) at 31 g/ha ([5]; Zea mays, pre-emergence, Preemergence, 31 g ai/ha, scale 0 to 100, 0 no effect, 100 complete control): 25%
pest or weed control at 16 g/ha ([6]; Setaria faberi, pre-emergence, 16 g ai/ha, preemergence, scale 0 to 100 (0 no effect, 100 complete control), read-out: Foxtail, Giant plant response rating): 100%
pest or weed control at 62 g/ha ([6]; Setaria faberi, pre-emergence, 62 g ai/ha, preemergence, scale 0 (no effect) to 100 (complete control), read-out: Foxtail, Giant plant response rating): 100%
pest or weed control at 125 g/ha ([6]; Setaria faberi, pre-emergence, 125 g ai/ha, preemergence, scale 0 (no effect) to 100 (complete control), read-out: Foxtail, Giant plant response rating): 100%
pest or weed control at 31 g/ha ([6]; Setaria faberi, pre-emergence, Preemergence, 31 g ai/ha, scale 0 to 100, 0 no effect, 100 complete control, read-out: Plant response rating, Foxtail, Giant): 100%
plant injury at 16 g/ha ([7]; Brassica napus, pre-emergence, 16 g ai/ha, preemergence, scale 0 to 100 (0 no effect, 100 complete control), read-out: Oilseed Rape plant response rating): 90%
plant injury at 62 g/ha ([7]; Brassica napus, pre-emergence, 62 g ai/ha, preemergence, scale 0 (no effect) to 100 (complete control), read-out: Oilseed Rape plant response rating): 100%
plant injury at 125 g/ha ([7]; Brassica napus, pre-emergence, 125 g ai/ha, preemergence, scale 0 (no effect) to 100 (complete control), read-out: Oilseed Rape plant response rating): 100%
pest or weed control at 16 g/ha ([8]; Amaranthus tuberculatus, pre-emergence, 16 g ai/ha, preemergence, scale 0 to 100 (0 no effect, 100 complete control), read-out: Waterhemp plant response rating): 100%
pest or weed control at 62 g/ha ([8]; Amaranthus tuberculatus, pre-emergence, 62 g ai/ha, preemergence, scale 0 (no effect) to 100 (complete control), read-out: Waterhemp plant response rating): 100%
pest or weed control at 125 g/ha ([8]; Amaranthus tuberculatus, pre-emergence, 125 g ai/ha, preemergence, scale 0 (no effect) to 100 (complete control), read-out: Waterhemp plant response rating): 100%
pest or weed control at 16 g/ha ([9]; Galium, post-emergence, 16 g ai/ha, postemergence, 0 is no effect, 100 is complete control, read-out: Plant response rating (0 to 100), Galium): 80%
pest or weed control at 31 g/ha ([9]; Galium, post-emergence, 31 g ai/ha, postemergence, visual rating, scale 0 to 100 (0 no effect, 100 complete control), 13 to 15 days, read-out: Galium plant response rating): 85%
pest or weed control at 125 g/ha ([9]; Galium, post-emergence, 125 g ai/ha, postemergence, visual rating, scale 0 to 100 (0 no effect, 100 complete control), read-out: Plant response rating, Galium): 95%
pest or weed control at 62 g/ha ([9]; Galium, post-emergence, Postemergence, 62 g ai/ha, scale 0 to 100 (0 no effect, 100 complete control), read-out: Plant response rating, Galium): 90%
Johnsongrass plant response rating [10, 12]: 5
pest or weed control at 16 g/ha ([10]; Sorghum halepense, post-emergence, 16 g ai/ha, postemergence, 0 is no effect, 100 is complete control, read-out: Plant response rating (0 to 100), Johnsongrass): 5%
pest or weed control at 125 g/ha ([10]; Sorghum halepense, post-emergence, 125 g ai/ha, postemergence, visual rating, scale 0 to 100 (0 no effect, 100 complete control), read-out: Plant response rating, Johnsongrass): 5%
pest or weed control at 62 g/ha ([10]; Sorghum halepense, post-emergence, Postemergence, 62 g ai/ha, scale 0 to 100 (0 no effect, 100 complete control), read-out: Plant response rating, Johnsongrass): 5%
Ragweed plant response rating [11, 12]: 45
pest or weed control at 16 g/ha ([11]; Ambrosia artemisiifolia, post-emergence, 16 g ai/ha, postemergence, 0 is no effect, 100 is complete control, read-out: Plant response rating (0 to 100), Ragweed): 35%
pest or weed control at 125 g/ha ([11]; Ambrosia artemisiifolia, post-emergence, 125 g ai/ha, postemergence, visual rating, scale 0 to 100 (0 no effect, 100 complete control), read-out: Plant response rating, Ragweed): 80%
pest or weed control at 62 g/ha ([11]; Ambrosia artemisiifolia, post-emergence, Postemergence, 62 g ai/ha, scale 0 to 100 (0 no effect, 100 complete control), read-out: Plant response rating, Ragweed): 60%

N#Cc1cnn(-c2c(Oc3ncc(Cl)cn3)cccc2C(F)F)c1 [Compound 236]
Wheat plant response rating (0 to 100 scale) [1]: 0
Wheat plant response rating ([1]; 500 g ai/ha, 0 to 100 scale where 0 is no effect and 100 is complete control): 100
Foxtail, Giant plant response rating ([2]; 125 g ai/ha): 90
Plant response rating, Foxtail, Giant ([2]; 500 g ai/ha): 100
Morningglory plant response rating [3]: 80
Plant response rating, Morningglory ([3]; 500 g ai/ha): 100
Plant response rating, Ducksalad [4]: 100
Corn plant response rating [5, 13]: 0
Corn plant response rating [5, 14]: 90
Plant response rating, Corn [5, 15]: 10
Foxtail, Giant plant response rating [6, 13]: 35
Foxtail, Giant plant response rating [6, 14]: 100
Plant response rating, Foxtail, Giant [6, 15]: 100
Oilseed Rape plant response rating [7, 13]: 80
Oilseed Rape plant response rating [7, 14]: 100
Plant response rating, Oilseed Rape [7, 15]: 100
Waterhemp plant response rating [8, 13]: 98
Waterhemp plant response rating [8, 14]: 100
Plant response rating, Waterhemp [8, 15]: 98
Plant response rating (0 to 100), Galium [9, 16]: 60
Galium plant response rating ([9]; 31 g ai/ha, postemergence, visual rating, scale 0 to 100 (0 no effect, 100 complete control), 13 to 15 days): 75
Plant response rating, Galium [9, 17]: 85
Plant response rating, Galium [9, 18]: 80
Plant response rating (0 to 100), Johnsongrass [10, 16]: 10
Johnsongrass plant response rating [10, 12]: 25
Plant response rating, Johnsongrass [10, 17]: 20
Plant response rating, Johnsongrass [10, 18]: 15
Plant response rating (0 to 100), Ragweed [11, 16]: 10
Ragweed plant response rating [11, 12]: 15
Plant response rating, Ragweed [11, 17]: 75
Plant response rating, Ragweed [11, 18]: 40
